Reference: ChEMBL document CHEMBL1201862, “PubChem BioAssay data set” (2004)
Calls of active or inactive are those of the source.

Tests used:
[1] = THP-1 cell cytotoxicity, dose response, cytotoxicity control for non-replicating M. tuberculosis project (AID 489025); type: functional
[2] = HepG2 cell cytotoxicity, dose response, cytotoxicity control for non-replicating M. tuberculosis project (AID 489018); type: functional; conditions: Mycobacterium tuberculosis
[3] = Vero E6 cell cytotoxicity, dose response, cytotoxicity control for non-replicating M. tuberculosis project, secondary assay (AID 492998); type: functional, VeroE6; conditions: Vero C1008
[4] = cells; type: functional
[5] = tested on: INS1; experiment: INS-1E survival protection against cytokine death – cell-based, luminescence, retest, dose response (AID 449756); type: functional; conditions: Rattus norvegicus;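 further: cell death triggered by IL-1 beta plus TNF-alpha plus IFN-gamma mixture; protective hits raise ATP signal compared with cytokine alone wells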
[6] = molecular target: DNA dC->dU-editing enzyme APOBEC-3G (Homo sapiens, UniProt Q9HC16); experiment: Dose Response confirmation of small molecule APOBEC3G DNA Deaminase Inhibitors via a fluorescence-based single-stranded DNA deaminase assay. [Related pubchem assays (depositor defined):AID493012, AID493028]; type: functional
Sequence of DNA dC->dU-editing enzyme APOBEC-3G (Q9HC16 whole entry): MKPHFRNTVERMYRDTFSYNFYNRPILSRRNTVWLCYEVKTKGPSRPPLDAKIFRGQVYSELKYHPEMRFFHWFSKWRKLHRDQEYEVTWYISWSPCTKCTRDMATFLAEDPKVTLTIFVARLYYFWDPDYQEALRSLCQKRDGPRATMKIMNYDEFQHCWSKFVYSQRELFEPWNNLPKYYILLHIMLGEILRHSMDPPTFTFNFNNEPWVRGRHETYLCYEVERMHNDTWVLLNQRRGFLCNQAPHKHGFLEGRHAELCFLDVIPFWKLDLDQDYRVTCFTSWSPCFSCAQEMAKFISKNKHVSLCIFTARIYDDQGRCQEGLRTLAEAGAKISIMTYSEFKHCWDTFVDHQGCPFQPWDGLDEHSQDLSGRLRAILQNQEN

[7] = molecular target: T1, Rac GTPase-activating protein 1 (Homo sapiens, UniProt Q9H0H5); experiment: blockers of MgcRacGAP-driven Rac1 GTP hydrolysis – biochemical, ADP Hunter fluorescence, primary and confirmatory, confirmation (AID 624330); type: functional
T1 sequence (Q9H0H5 whole entry): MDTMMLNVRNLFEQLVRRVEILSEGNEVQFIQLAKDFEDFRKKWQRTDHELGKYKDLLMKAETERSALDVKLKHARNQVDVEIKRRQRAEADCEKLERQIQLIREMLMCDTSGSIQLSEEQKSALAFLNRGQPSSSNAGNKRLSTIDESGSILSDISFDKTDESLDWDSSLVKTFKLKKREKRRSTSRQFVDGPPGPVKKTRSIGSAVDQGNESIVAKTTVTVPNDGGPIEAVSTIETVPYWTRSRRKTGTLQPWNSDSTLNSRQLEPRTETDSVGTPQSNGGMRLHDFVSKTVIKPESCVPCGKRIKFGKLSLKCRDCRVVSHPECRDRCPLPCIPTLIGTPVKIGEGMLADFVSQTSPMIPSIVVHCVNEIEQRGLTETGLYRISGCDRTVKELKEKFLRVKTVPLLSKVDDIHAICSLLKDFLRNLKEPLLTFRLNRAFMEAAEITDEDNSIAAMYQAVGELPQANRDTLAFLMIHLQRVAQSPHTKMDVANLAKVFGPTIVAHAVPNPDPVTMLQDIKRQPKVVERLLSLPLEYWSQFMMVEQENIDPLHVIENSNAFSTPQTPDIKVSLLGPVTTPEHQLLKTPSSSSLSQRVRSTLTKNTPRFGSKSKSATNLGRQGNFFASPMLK

[8] = luciferase reporter signal suppression in cells – H4 neuroglioma cells, luminescence, dose response (AID 1990); type: functional, cell-based
[9] = luciferase reporter signal reduction – luminescence, H4-C neuroglioblastoma cells, dose response (AID 2458); type: functional, cell-based;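 further: H4 neuroglioblastoma cells stably carrying a luciferase reporter gene fusion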
[10] = cells; type: functional, cell-based
[11] = Luminescence Cell-Based Dose Response HTS to Identify Inhibitors of 5'UTR Stem-Loop Driven Prion Protein mRNA Translation in H4 Neuroglioblastoma Cells. [Related pubchem assays: 1827 (Project Summary), 1813 (Primary HTS)]; type: functional
[12] = alpha-synuclein stem-loop luciferase translation blockers – H4 neuroglioma cells, luminescence, confirmation (AID 1988); type: functional, cell-based
[13] = viability of PTEN-deleted HCT116 cells – cell-based, HCT116 PTEN knockout, dose response (AID 1047); type: functional;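 further: HCT116 colon tumor cells with PTEN knocked out; cells exposed to compound for 60 hours before readout; potency for loss of cell viability measured by luminescence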
[14] = viability of HCT116 lacking mutant beta-catenin – cell-based, human colon tumor, dose response (AID 1045); type: functional;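 further: HCT116 colon tumor cells with beta catenin knocked out; cells exposed to compound for 60 hours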
[15] = alpha-synuclein stem-loop translation blockers – luminescence, H4 neuroglioblastoma cells, dose confirmation, confirmation (AID 2454); type: functional, cell-based;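 further: H4 neuroglioblastoma cells carrying an alpha-synuclein 5'UTR luciferase reporter; potency for inhibition of the luciferase signal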
[16] = reduction of Shn3 3'UTR-driven luciferase in osteoblasts – cell-based, Clone20 osteoblasts, firefly luciferase, cherry-picked, dose response (AID 624132); type: functional;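 further: firefly luciferase luminescence from reporter carrying the Shn3 3'UTR in osteoblasts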
[17] = loss of viability in HepG2 cells – cell-based, CellTiter-Glo, cherry-picked, cytotoxicity control for Shn3 inhibitor project, dose response (AID 624134); type: functional
[18] = non-specific 3'UTR reporter inhibition in Clone20-Shn3RL – cell-based, Renilla luciferase, cherry-picked, counter-screen for Shn3 inhibitor project, dose response (AID 624133); type: functional
[19] = molecular target: Paired box protein Pax-8 (Homo sapiens, UniProt Q06710); experiment: PAX8 transcriptional activity inhibition in RMG-I – RMG-I cells, luciferase, cherry-pick, dose response (AID 687027); type: functional, cell-based;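 further: luciferase reporter driven by Pax8 target thyroperoxidase promoter measured by SteadyGlo luminescence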
Sequence of Paired box protein Pax-8 (Q06710 whole entry): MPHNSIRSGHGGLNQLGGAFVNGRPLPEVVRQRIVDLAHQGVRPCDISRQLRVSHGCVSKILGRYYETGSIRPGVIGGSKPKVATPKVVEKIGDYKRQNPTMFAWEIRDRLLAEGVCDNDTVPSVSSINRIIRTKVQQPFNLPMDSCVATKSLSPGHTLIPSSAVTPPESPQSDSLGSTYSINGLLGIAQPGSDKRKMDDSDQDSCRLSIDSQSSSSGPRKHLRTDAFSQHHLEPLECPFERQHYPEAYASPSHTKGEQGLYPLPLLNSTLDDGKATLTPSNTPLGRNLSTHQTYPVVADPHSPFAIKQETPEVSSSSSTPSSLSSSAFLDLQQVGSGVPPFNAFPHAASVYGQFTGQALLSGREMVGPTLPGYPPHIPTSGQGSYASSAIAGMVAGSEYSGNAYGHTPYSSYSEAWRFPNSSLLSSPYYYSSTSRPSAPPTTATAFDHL

[20] = viability loss in THP-1 monocytes – THP-1 cells, cytotoxicity control for Vif-APOBEC3G degradation inhibitor project, dose response (AID 1117359); type: functional; conditions: THP-1
[21] = NIH-3T3 fibroblast cytotoxicity, dose response, cytotoxicity control, cell-based, fluorescence, Alamar Blue, secondary assay (AID 2327); type: functional;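 further: NIH-3T3 mouse fibroblasts cultured with fluconazole at 8 µg/mL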
[22] = fluconazole-exposed Candida albicans growth modulators – fluorescence, retest, confirmation (AID 2467); type: functional, cell-based
[23] = molecular target: Disintegrin and metalloproteinase domain-containing protein 17 (Homo sapiens, UniProt P78536); experiment: exosite inhibitors of ADAM17, dose response, biochemical (AID 743260)
Sequence of Disintegrin and metalloproteinase domain-containing protein 17 (P78536 whole entry, the tested form may be a part): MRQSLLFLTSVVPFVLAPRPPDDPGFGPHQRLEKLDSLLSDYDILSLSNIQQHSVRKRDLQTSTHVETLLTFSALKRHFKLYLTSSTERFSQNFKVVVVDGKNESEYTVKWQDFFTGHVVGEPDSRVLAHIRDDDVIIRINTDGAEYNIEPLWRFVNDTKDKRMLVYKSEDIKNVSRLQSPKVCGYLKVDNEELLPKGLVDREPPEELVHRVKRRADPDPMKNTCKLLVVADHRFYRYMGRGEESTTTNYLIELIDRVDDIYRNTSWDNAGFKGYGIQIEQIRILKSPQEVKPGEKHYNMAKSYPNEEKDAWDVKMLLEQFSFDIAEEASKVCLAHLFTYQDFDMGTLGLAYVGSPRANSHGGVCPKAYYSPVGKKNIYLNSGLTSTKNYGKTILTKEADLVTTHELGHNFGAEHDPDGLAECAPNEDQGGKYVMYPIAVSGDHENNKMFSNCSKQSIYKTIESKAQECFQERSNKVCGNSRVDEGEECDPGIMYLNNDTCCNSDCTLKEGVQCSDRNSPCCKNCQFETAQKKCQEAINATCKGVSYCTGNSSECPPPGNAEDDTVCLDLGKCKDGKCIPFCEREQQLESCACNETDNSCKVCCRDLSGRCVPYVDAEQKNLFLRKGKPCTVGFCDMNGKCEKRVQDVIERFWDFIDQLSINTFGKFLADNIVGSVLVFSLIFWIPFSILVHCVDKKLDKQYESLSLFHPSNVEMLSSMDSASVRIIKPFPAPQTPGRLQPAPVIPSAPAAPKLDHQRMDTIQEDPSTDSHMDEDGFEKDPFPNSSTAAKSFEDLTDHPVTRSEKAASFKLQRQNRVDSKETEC

[24] = inhibition of ADAM10 peptide cleavage – biochemical, FRET peptide substrate, recombinant human ADAM10, selectivity assay for ADAM17 exosite inhibitor project, dose response (AID 743259);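 further: ADAM10 enzyme cleaving a FRET peptide substrate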
[25] = Luminescence Cell-Based Dose Response to Identify Activators of 5'UTR Stem-Loop Driven Prion Protein mRNA Translation in H4-C Neuroglioblastoma Cells. [Related pubchem assays: 1829 (Project Summary), 1814 (Primary HTS)]; type: functional
[26] = Luminescence Cell-Based Dose Confirmation HTS to Identify Activators of 5'UTR Stem-Loop Driven Alpha-Synuclein mRNA Translation in H4 Neuroglioblastoma Cells. [Related pubchem assays: 1829 (Project Summary), 1814 (Primary HTS)]; type: functional
[27] = Luminescence Cell-Based Dose Response HTS to Identify Activators of Luciferase Translation or Activity in H4 […] Cells. [Related pubchem assays: 1829 (Project Summary), 1814 (Primary HTS)]; type: functional
[28] = tested on: H4; experiment: Luminescence Cell-Based Dose Response HTS to Identify Activators of 5'UTR Stem-Loop Driven Prion Protein mRNA Translation in H4 Neuroglioblastoma Cells. [Related pubchem assays: 1829 (Project Summary), 1814 (Primary HTS)]; type: functional; conditions: Homo sapiens
[29] = Luminescence Cell-Based Dose Response to Identify Activators of Luciferase Translation or Activity in H4-C Neuroglioblastoma Cells. [Related pubchem assays: 1829 (Project Summary), 1814 (Primary HTS)]; type: functional
[30] = microbe, parasite or virus in culture; type: functional; conditions: Mycobacterium tuberculosis
[31] = Luminescence Cell-Based Dose Confirmation to Identify Activators of 5'UTR Stem-Loop Driven Alpha-Synuclein mRNA Translation in H4 Neuroglioblastoma Cells. [Related pubchem assays: 1829 (Project Summary), 1814 (Primary HTS)]; type: functional
[32] = molecular target: Heat shock protein HSP 90-alpha (Homo sapiens, UniProt P07900); type: functional, organism-based
[33] = HEK-293T viability loss after treatment – luminescence, T-cell screen hits, cytotoxicity control for TCR NF-kB inhibitor project, dose response (AID 489026); type: functional, cell-based;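 further: cells exposed to compound about 14 hours before the viability readout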

With CCCCCn1c(=O)c(C(=O)Nc2nc3ccccc3[nH]2)c(O)c2ccccc21 the CC50 [1] was 6.69 µM (active), the CC50 [2] was > 20 µM (active) and the CC50 [3] was 6.21 µM (active). For the same molecule, the IC50 [4] was 7.7 µM (active) and the AC50 [5] was 6.54 µM (active).

In the case of CC(C)Cn1c(-c2ccc(Br)o2)n[nH]c1=S, the IC50 [6] was 2.83 µM (active) and the IC50 [7] was 105 µM (active).

In the case of Cc1cc(C2=NN=C(NC3CC3)SC2)c(C)n1-c1ccccc1F, the EC50 [8] was < 0.1 µM (active), the EC50 [9] was 0.005 µM (active) and the EC50 [10] was 0.016 µM (active). For the same molecule, the EC50 [11] was < 0.1 µM (active), the EC50 [12] was < 0.1 µM (active) and the EC50 [13] was 17.1 µM (active). The EC50 [14] was 16.7 µM (active), the EC50 [15] was 0.004 µM (active) and the AC50 [16] was < 0.26 µM (active). The AC50 [17] was 28 µM (active), the AC50 [18] was 6.07 µM (active) and the AC50 [19] was < 0.26 µM (active).

In the case of CCCCN(CCCC)CCCN1CC(=O)N2[C@@H](Cc3c([nH]c4ccccc34)C2(C)C)C1=O, the CC50 [20] was > 40 µM (active).

In the case of O=[N+]([O-])CC(c1ccccc1)P(=O)(c1ccccc1)c1ccccc1 (configuration not stated), the EC50 [21] was > 160 µM (inactive), the EC50 [22] was 5.58 µM (active) and the IC50 [23] was 10.9 µM (inactive). The IC50 [24] was > 69.5 µM (inactive).

For Cc1cc(-c2nnc(S)n2/N=C/C(Br)=C/c2ccccc2)[nH]n1, the EC50 [25] was > 12 µM (not active), the EC50 [26] was 77.7 µM (active) and the EC50 [27] was < 0.1 µM (active). The EC50 [28] was > 120 µM (not active), the EC50 [29] was 8.65 µM (active) and the CC50 [30] was 29.3 µM (active). For the same molecule, the EC50 [13] was 1.96 µM (active), the EC50 [31] was 0.943 µM (active) and the EC50 [14] was 1.52 µM (active). The CC50 [1] was 11.1 µM (active), the CC50 [2] was > 20 µM (active) and the CC50 [3] was 9.01 µM (active). For the same molecule, the IC50 [4] was 4.68 µM (active), the AC50 [32] was 10.4 µM (active) and the AC50 [5] was > 60 µM (inactive). For the same molecule, the AC50 [19] was 2.78 µM (active).

For CCOc1ccc2[nH]c(C(=O)N/N=C/c3ccc(OC)cc3)cc2c1, the EC50 [8] was 7.08 µM (active), the EC50 [9] was 1.12 µM (active) and the EC50 [10] was 1.4 µM (active). For the same molecule, the EC50 [11] was 0.273 µM (active), the EC50 [12] was < 0.1 µM (active) and the EC50 [15] was 3.25 µM (active).

In the case of CN(C)c1ccc2c(c1)OC(N)=C(C#N)C2c1cccc(F)c1 (configuration not stated), the EC50 [8] was < 0.1 µM (active), the EC50 [9] was 0.228 µM (active) and the EC50 [10] was 0.233 µM (active). For the same molecule, the EC50 [11] was < 0.1 µM (active), the EC50 [12] was < 0.1 µM (active) and the EC50 [15] was 0.338 µM (active). The IC50 [33] was 40.4 µM (inactive).

In the case of Cc1cc(C)c([N+](=O)[O-])cc1-c1ccc(/C=N/c2c(-c3ccco3)nc3ccccn23)o1, the EC50 [26] was 8.26 µM (active), the EC50 [27] was 12 µM (active) and the EC50 [28] was 14.8 µM (active). The CC50 [20] was 31.6 µM (active).
